Counter-ions that a name gives are not always drawn. Like-named read-outs stand apart in the source and are kept apart here.
Key:
[1] = system: tumor necrosis factor (α) (TNF-α); experiment: Cytokine induction in human cells: TNF-α secreted by PBMC (ORIGEN M-Series immunoassay); format: cell-based; set-up: key to Maximal Response (pg/mL) TNF: *: Below experimental background level; conditions: median if more than one experiment; for minimal effective concentration: lowest tested concentration inducing response over 40 pg/mL, read-out: Minimum Effective Concentration (μM) TNF; for Maximal Response (pg/mL) TNF: background-subtracted, reference-adjusted
From the text: (§1) An in vitro human blood cell system is used to assess cytokine induction. Activity is based on the measurement of interferon (α) and tumor necrosis factor (α) (IFN-α and TNF-α, respectively) secreted into culture media as described by Testerman et. al. in “Cytokine Induction by the Immunomodulators Imiquimod and S-27609”, Journal of Leukocyte Biology, 58, 365-372 (September, 1995).
(§2) Whole blood from healthy human donors is collected by venipuncture into vacutainer tubes or syringes containing EDTA. Peripheral blood mononuclear cells (PBMC) are separated from whole blood by density gradient centrifugation using HISTOPAQUE-1077 (Sigma, St. Louis, Mo.) or Ficoll-Paque Plus (Amersham Biosciences Piscataway, N.J.). Blood is diluted 1:1 with Dulbecco's Phosphate Buffered Saline (DPBS) or Hank's Balanced Salts Solution (HBSS). Alternately, whole blood is placed in Accuspin (Sigma) or LeucoSep (Greiner Bio-One, Inc., Longwood, Fla.) centrifuge frit tubes containing density gradient medium. The PBMC layer is collected and washed twice with DPBS or HBSS and re-suspended at 4×10^6 cells/mL in RPMI complete. The PBMC suspension is added to 96 well flat bottom sterile tissue culture plates containing an equal volume of RPMI complete media containing test compound.
(§3) The compounds are solubilized in dimethyl sulfoxide (DMSO). The DMSO concentration should not exceed a final concentration of 1% for addition to the culture wells. The compounds are generally tested at concentrations ranging from 30-0.014 μM. Controls include cell samples with media only, cell samples with DMSO only (no compound), and cell samples with reference compound.
(§4) The solution of test compound is added at 60 μM to the first well containing RPMI complete and serial 3 fold dilutions are made in the wells. The PBMC suspension is then added to the wells in an equal volume, bringing the test compound concentrations to the desired range (usually 30-0.014 μM). The final concentration of PBMC suspension is 2×10^6 cells/mL. The plates are covered with sterile plastic lids, mixed gently and then incubated for 18 to 24 hours at 37° C. in a 5% carbon dioxide atmosphere.
(§5) Following incubation the plates are centrifuged for 10 minutes at 1000 rpm (approximately 200×g) at 4° C. The cell-free culture supernatant is removed and transferred to sterile polypropylene tubes. Samples are maintained at −30 to −70° C. until analysis. The samples are analyzed for IFN-α by ELISA and for TNF-α by IGEN/BioVeris Assay.
The TNF-α concentration is determined by ORIGEN M-Series Immunoassay and read on an IGEN M-8 analyzer from BioVeris Corporation, formerly known as IGEN International, Gaithersburg, Md. The immunoassay uses a human TNF-α capture and detection antibody pair (Catalog Numbers AHC3419 and AHC3712) from Biosource International, Camarillo, Calif. Results are expressed in pg/mL.
(§6) In total, the data output of the assay consists of concentration values of TNF-α and IFN-α(y-axis) as a function of compound concentration (x-axis).
Analysis of the data has two steps. First, the greater of the mean DMSO (DMSO control wells) or the experimental background (usually 20 pg/mL for IFN-α and 40 pg/mL for TNF-α) is subtracted from each reading. If any negative values result from background subtraction, the reading is reported as “*”, and is noted as not reliably detectable. In subsequent calculations and statistics, “*”, is treated as a zero. Second, all background subtracted values are multiplied by a single adjustment ratio to decrease experiment to experiment variability. The adjustment ratio is the area of the reference compound in the new experiment divided by the expected area of the reference compound based on the past 61 experiments (unadjusted readings). […]

interferon (α) (IFN-α) = experiment: Cytokine induction in human cells: IFN-α secreted by PBMC (ELISA); format: cell-based; set-up: key to Maximal Response (pg/mL) IFN: *: Below experimental background level; conditions: median if more than one experiment; for minimal effective concentration: lowest tested concentration inducing response over 20 pg/mL, read-out: Minimum Effective Concentration (μM) IFN; for Maximal Response (pg/mL) IFN: background-subtracted, reference-adjusted
From the text: as §1, §2, §3, §4, §5
IFN-α concentration is determined with a human multi-subtype colorimetric sandwich ELISA (Catalog Number 41105) from PBL Biomedical Laboratories, Piscataway, N.J. Results are expressed in pg/mL.
as §6
Analysis of the data has two steps. First, the greater of the mean DMSO (DMSO control wells) or the experimental background (usually 20 pg/mL for IFN-α and 40 pg/mL for TNF-α) is subtracted from each reading. If any negative values result from background subtraction, the reading is reported as “*”, and is noted as not reliably detectable. In subsequent calculations and statistics, “*”, is treated as a zero. Second, all background subtracted values are multiplied by a single adjustment ratio to decrease experiment to experiment variability. The adjustment ratio is the area of the reference compound in the new experiment divided by the expected area of the reference compound based on the past 61 experiments (unadjusted readings). […] The reference compound used is 2-[4-amino-2-ethoxymethyl-6,7,8,9-tetrahydro-α,α-dimethyl-1H-imidazo[4,5-c]quinolin-1-yl]ethanol hydrate (U.S. Pat. No. 5,352,784; Example 91) and the expected area is the sum of the median dose values from the past 61 experiments.
The minimum effective concentration is calculated based on the background-subtracted, reference-adjusted results for a given experiment and compound. […]

Row | Structure (SMILES) | minimal effective concentration ([1]; 18 to 24 hours) [µM] | minimal effective concentration (interferon (α) (IFN-α); 18 to 24 hours) [µM] | Maximal Response (pg/mL) TNF ([1]; tested 30-0.014 μM) | Maximal Response (pg/mL) IFN (interferon (α) (IFN-α); tested 30-0.014 μM) | other results
1 | CCCc1nc2c(N)nc3cc(-c4cccnc4)ccc3c2n1CC(C)(C)O [Analog 2, 1-(4-amino-2-propyl-7-pyridin-3-yl-1H-imidazo[4,5-c]quinolin-1-yl)-2-methylpropan-2-ol, reference compound] | 0.37 | 0.04 | – | – | minimal effective concentration ([1]; Table 3, 18 to 24 hours): 0.37 µM; minimal effective concentration (interferon (α) (IFN-α); Table 3, 18 to 24 hours): 0.04 µM
2 | CS(=O)(=O)N1CCC(Cn2c(CO)nc3c(N)nc4cc(-c5cccnc5)ccc4c32)CC1 [Example 34] | – | – | – | – | melting point: 196 to 198 °C
3 | Nc1nc2cc(-c3cccc(C(=O)N4CCCC4)c3)ccc2c2c1nc(CO)n2CC1CCOCC1 [Example 139, [4-Amino-7-[3-(pyrrolidin-1-ylcarbonyl)phenyl]-1-(tetrahydro-2H-pyran-4-ylmethyl)-1H-imidazo[4,5-c]quinolin-2-yl]methanol] | – | – | – | – | melting point: 281 to 284 °C
4 | CS(=O)(=O)N1CCC(Cn2c(CO)nc3c(N)nc4cc(-c5cncc(CO)c5)ccc4c32)CC1 (as salt: HBr) (hydrate or solvate) [Example 44] | – | – | – | – | melting point: > 300 °C
5 | Nc1nc2cc(-c3cccnc3)ccc2c2c1nc(CO)n2CCCCNC(=O)NC1CCCC1 [Example 41] | 10 | 0.04 | – | – | –
6 | CCOCc1nc2c(N)nc3cc(-c4cccnc4)ccc3c2n1CC(C)(C)O [Analog 3, 1-(4-amino-2-ethoxymethyl-7-pyridin-3-yl-1H-imidazo[4,5-c]quinolin-1-yl)-2-methylpropan-2-ol, reference compound] | 0.12 | 0.04 | – | – | minimal effective concentration ([1]; Table 3, 18 to 24 hours): 0.12 µM; minimal effective concentration (interferon (α) (IFN-α); Table 3, 18 to 24 hours): 0.04 µM
7 | CC(C)(O)Cn1c(CO)nc2c(N)nc3cc(-c4cncc(CO)c4)ccc3c21 [Example 33] | > 30 | 0.37 | * | – | –
8 | CCCNC(=O)NCCCCn1c(CO)nc2c(N)nc3cc(-c4cccnc4)ccc3c21 [Example 39] | 30 | 0.37 | – | – | –
9 | CC(C)C(=O)N1CCC(Cn2c(CO)nc3c(N)nc4cc(-c5cncc(CO)c5)ccc4c32)CC1 [Example 45] | > 30 | > 30 | * | * | –
10 | CC(C)NC(=O)N1CCC(Cn2c(CO)nc3c(N)nc4cc(-c5cccnc5)ccc4c32)CC1 [Example 36] | – | – | – | – | melting point: 182 to 184 °C
11 | CC(C)C(=O)N1CCC(Cn2c(CO)nc3c(N)nc4cc(-c5cncc(CO)c5)ccc4c32)CC1 (as salt: HBr) [Example 45] | – | – | – | – | melting point: > 300 °C
12 | CC(C)NC(=O)N1CCC(Cn2c(CO)nc3c(N)nc4cc(-c5cncc(CO)c5)ccc4c32)CC1 (as salt: HBr) [Example 46] | – | – | – | – | melting point: > 300 °C
13 | CC(C)(O)Cn1c(CCO)nc2c(N)nc3cc(-c4ccccc4)ccc3c21 [Example 2] | 3.33 | 0.37 | 67 pg/mL | 1274 pg/mL | –
14 | CC(C)Cn1c(CCO)nc2c(N)nc3cc(-c4cccnc4)ccc3c21 [Example 3] | 3.33 | 0.37 | 42 pg/mL | 1180 pg/mL | –
15 | CC(C)(O)Cn1c(CO)nc2c(N)nc3cc(-c4cccc(O)c4)ccc3c21 [Example 13] | 10 | 0.37 | 352 pg/mL | 12641 pg/mL | –
16 | Nc1nc2cc(-c3cccc(C(=O)N4CCOCC4)c3)ccc2c2c1nc(CO)n2CC1CCCCC1 [Example 50] | > 30 | 1.11 | * | – | –
17 | Cc1cccc(-c2ccc3c(c2)nc(N)c2nc(CCO)n(CCCN4CCCC4=O)c23)c1 (hydrate or solvate) [Example 47] | – | – | – | – | melting point: 218 to 221 °C
18 | CC(C)(O)Cn1c(CO)nc2c(N)nc3cc(-c4cccnc4)ccc3c21 [Example 8] | 10 | 0.37 | 51 pg/mL | 2886 pg/mL | minimal effective concentration ([1]; Table 3, 18 to 24 hours): >30 µM; Maximal Response (pg/mL) TNF ([1]; Table 3, tested 30-0.014 μM): * (Below experimental background level of 40/pg mL); minimal effective concentration (interferon (α) (IFN-α); Table 3, 18 to 24 hours): 1.11 µM; Maximal Response (pg/mL) IFN (interferon (α) (IFN-α); Table 3, tested 30-0.014 μM): 2251 pg/mL
19 | CC(C)Cn1c(CCO)nc2c(N)nc3cc(-c4cncc(CO)c4)ccc3c21 [Example 4] | 10 | 0.12 | 349 pg/mL | 1891 pg/mL | –
20 | Cc1ccc(-c2ccc3c(c2)nc(N)c2nc(CO)n(CC(C)(C)O)c23)cc1 [Example 10] | 0.37 | 0.37 | 7423 pg/mL | 1681 pg/mL | –
21 | Cc1cccc(-c2ccc3c(c2)nc(N)c2nc(CO)n(CC(C)(C)O)c23)c1 [Example 9] | >30 | 30 | * | 87 pg/mL | –
22 | CCc1nc2c(N)nc3cc(-c4cccnc4)ccc3c2n1CC(C)(C)O [Analog 1, 1-(4-amino-2-ethyl-7-pyridin-3-yl-1H-imidazo[4,5-c]quinolin-1-yl)-2-methylpropan-2-ol, reference compound] | 0.37 | 0.12 | – | – | minimal effective concentration ([1]; Table 3, 18 to 24 hours): 0.37 µM; minimal effective concentration (interferon (α) (IFN-α); Table 3, 18 to 24 hours): 0.12 µM
23 | Nc1nc2cc(-c3cncc(CO)c3)ccc2c2c1nc(CO)n2CC1CCCCC1 [Example 49] | > 30 | 3.33 | * | – | –
24 | CC(C)C(=O)N1CCC(Cn2c(CO)nc3c(N)nc4cc(-c5cccnc5)ccc4c32)CC1 [Example 35] | > 30 | 1.11 | * | – | –
25 | CC(C)C(=O)NCCCCn1c(CO)nc2c(N)nc3cc(-c4cccnc4)ccc3c21 [Example 43] | 10 | 0.37 | – | – | –
